From ChEMBL document CHEMBL1139196, “Synthesis of fluorescent-labeled aeruginosin derivatives for high-throughput fluorescence correlation spectroscopy assays” (Bioorg Med Chem Lett, 2007) come the findings set out here.

The target in this assay is Trypsin (Homo sapiens, UniProt P07477+P07478+P35030). The experiment in a line: Inhibition of trypsin by FCS method. Type of assay: protein assay.
One may read the IC50 as the concentration at which inhibition is half-maximal. A low value points to inhibition by little substance. Take `N=C(N)NCCC[C@@H](CO)NC(=O)[C@@H]1C[C@@H]2CC[C@@H](O)C[C@@H]2N1C(=O)[C@@H](Cc1ccc(O)cc1)NC(=O)[C@H](O)Cc1ccc(O)cc1`: the half-maximal inhibitory concentration (IC50) came out at 8800 nM. That is a single-digit micromolar value.
Turning to `CC(C)C[C@@H](NC(=O)[C@H](O)Cc1ccc(O)cc1)C(=O)N1[C@H](C(=O)N[C@@H](CCCNC(=N)N)C(=O)O)C[C@@H]2CC[C@@H](O)C[C@@H]21`, the half-inhibitory concentration (IC50) was 650 nM.
To `N=C(N)NCCCCNC(=O)[C@@H]1C[C@@H]2CC[C@@H](O)C[C@@H]2N1C(=O)[C@@H](Cc1ccc(O)cc1)NC(=O)[C@H](O)Cc1ccc(O)cc1` belongs 150 nM; to `N=C(N)NCCC[C@H](NC(=O)[C@@H]1C[C@@H]2CC[C@@H](O)C[C@@H]2N1C(=O)[C@@H](Cc1ccc(O)cc1)NC(=O)[C@H](O)Cc1ccc(O)cc1)C(=O)O`, 1000 nM; to `N=C(N)NCCC[C@H](NC(=O)[C@@H]1C[C@@H]2CC[C@@H](O)C[C@@H]2N1C(=O)[C@H](Cc1ccccc1)NC(=O)[C@H](O)Cc1ccc(O)cc1)C(=O)O`, 12000 nM.
